Reference: patent US7282513B2, “Heteroaryl substituted spirocyclic sulfamides for inhibition of gamma secretase” (Merck Sharp & Dohme Limited, priority 2002, dated 2007)

- melting point: 185 °C
SMILES: Cn1nc(-c2ccc(F)cc2)cc1-c1ccc2c(c1)C[C@H]1CC[C@@H](C2)[C@]12CN(CC(F)(F)F)S(=O)(=O)N2 (single isomer, unassigned) [Example 15]
